From patent US10434199B2, “Picolinate cross-bridged cyclams, chelates with metallic cations and use thereof” (UNIVERSITÉ DE BRETAGNE OCCIDENTALE, priority 2013, dated 2019)

Legend:
[1] = Potentiometric titrations: stability constants and pM of Cu^2+ complexes; assay type: physicochemical
Method: Equipment and work conditions. The potentiometric setup has been described in Roger, M. et al. Inorg. […] Ligand solutions were prepared at about 2.0×10^−3 M, and the Cu^2+ and Zn^2+ solutions at ca. 0.05 M from analytical grade nitrate salts and standardized by complexometric titrations with H4edta (ethylenediaminetetraacetic acid). Sample solutions for titration contained approximately 0.04 mmol of ligand in a volume of 30 mL where the ionic strength was kept at 0.10 M using KNO3 as background electrolyte. Metal cations were added at 0.9 equiv. of the ligand amount in complexation titrations. Batch titrations were prepared in a similar way but with each titration point corresponding to 1/10 of the amount of a conventional titration sample.
(§1) Measurements. All measurements were carried out at 25.0±0.1° C. under inert atmosphere. The electromotive force of the sample solutions was measured after calibration of the electrodes by titration of a standard HNO3 solution at 2.0×10^−3 M in the work conditions. The [H^+] of the solutions was determined by measurement of the electromotive force of the cell, E=E^o′+Q log [H^+]+Ej. The term pH is defined as −log [H^+]. E^o′ and Q were determined from the acid region of the calibration curves. Deviations from the Nernst law at very low pH (pH<2.5) were corrected with the VLpH software (Calibration software from the maker of Hyperquad available for free at http://www.hyperquad.co.uk/), which performs a [H^+] correction based on a very low pH calibration procedure.
(§2) Calculations. The potentiometric data were refined with the Hyperquad software, and speciation diagrams were plotted using the HySS software. The overall equilibrium constants βi^H and βMmHhL1 are defined by βMmHhL1=[MmHhLl]/[M]^m[H]^h[L]^l (βi^H=[HhLl]/[H]^h[L]^l and βML-1L=βML(OH)×Kw). Differences in log units between the values of protonated (or hydrolysed) and non-protonated constants provide the stepwise (log K) reaction constants (being KMmHhL1=[MmHhLl]/[MmHh-1Ll][H]). The errors quoted are the standard deviations calculated by the fitting program from all the experimental data for each system.
(§3) The stability constants of the complexes formed by Hcb-te1pa with Cu^2+ and Zn^2+ were determined by potentiometric titrations in aqueous solution at 25.0° C. in 0.10 M KNO3 ionic strength (Table 2).
During titrations, each experimental point included a supplementary equilibration time in order to yield fully stabilized measurements. […] For this reason, batch titrations were prepared in the range of pH=4-6 and were left to equilibrate until full stabilization, while conventional titrations were used for the remaining pH regions.
For a correct comparison of the thermodynamic stability of the complexes of Hcb-te1pa with the corresponding values of other ligands from the literature, the pM values that take into account the variable basicity properties of different ligands were also calculated (Table 3). […] The thermodynamic stability is not the only important criterion to determine the efficiency of metal complexation because, depending on the application, other factors such as kinetic inertness or in vivo stability can be more important.

[2] = Potentiometric titrations: stability constants and pM of Zn^2+ complexes; assay type: physicochemical
Method: Equipment and work conditions. The potentiometric setup has been described in Roger, M. et al. Inorg. Chem. 2013, 52, 5246-5259. The titrant was a KOH solution prepared at ca. 0.1 M from a commercial ampoule of analytical grade, and its accurate concentration was obtained by application of the Gran's method upon titration of a standard HNO3 solution (Rossotti, F. J. and Rossotti, H. J. J. Chem. Educ. 1965, 42, 375-378). Ligand solutions were prepared at about 2.0×10^−3 M, and the Cu^2+ and Zn^2+ solutions at ca. 0.05 M from analytical grade nitrate salts and standardized by complexometric titrations with H4edta (ethylenediaminetetraacetic acid). Sample solutions for titration contained approximately 0.04 mmol of ligand in a volume of 30 mL where the ionic strength was kept at 0.10 M using KNO3 as background electrolyte. Metal cations were added at 0.9 equiv. of the ligand amount in complexation titrations. Batch titrations were prepared in a similar way but with each titration point corresponding to 1/10 of the amount of a conventional titration sample. Batch titration points were incubated in tightly closed vials at 25° C. until potential measurements attained complete stability, which happened within a week.
as §1, with “procedure. The liquid-junction potential, Ej, was otherwise found to be negligible for pH >2.5 under the experimental conditions used. […] Each titration consisted of 80-100 equilibrium points in the range of pH 2.5-11.5 (or 1.5-11.5 for Cu^2+ complexations), and at least two replicate titrations were performed for each particular system.” for “procedure.”
as §2, §3
The equilibrium of formation of the copper(II) and especially the zinc(II) complexes is slow in the acidic pH range. In the case of Cu^2+, the complexation is almost complete from low pH but relatively slow up to pH=4. To overcome this double problem, conventional titrations were performed at pH values below 2 in order to observe a significant percentage of free metal ion (at least 18%) and thus allow for determination of the corresponding stability constant, while giving the solution enough time to reach equilibrium prior to the start of the titration. During titrations, each experimental point included a supplementary equilibration time in order to yield fully stabilized measurements. […]

[3] = pH = 7.4, 100% excess of ligand, [M^2+]tot = 1 × 10^−5 M

SMILES: O=C(O)c1cccc(CN2CCCN3CCNCCCN(CC3)CC2)n1 [Hcb-te1pa, 6-(1,4,8,11-tetraazabicyclo[6.6.2]hexadecan-4-ylmethyl)picolinic acid]
- log KMLHh, Cu^2+ + L ⇌ CuL ([1]; 25.0° C., I = 0.10M KNO3): 26.00 log units
- log βMLHh, Cu^2+ + L ⇌ CuL ([1]; 25.0° C., I = 0.10M KNO3): 26.00(5) log units
- b) thermodynamic stability: log K[CuL] ([1]; overview table): 26.00
- b) thermodynamic stability: pCu ([1]; overview table, calculated pM): 15.67
- Calculated pM, Cu^2+ [1, 3]: 15.67
- log KMLHh, ZnLOH + H^+ ⇌ ZnL ([2]; 25.0° C., I = 0.10M KNO3): 11.33 log units
- log KMLHh, Zn^2+ + L ⇌ ZnL ([2]; 25.0° C., I = 0.10M KNO3): 18.83 log units
- log βMLHh, Zn^2+ + L ⇌ ZnL ([2]; 25.0° C., I = 0.10M KNO3): 18.83(6) log units
- log βMLHh, Zn^2+ + L ⇌ ZnLOH + H^+ ([2]; 25.0° C., I = 0.10M KNO3): 7.50(7) log units
- c) inertness vs Zn: log K[ZnL] ([2]; overview table): 18.83
- c) inertness vs Zn: pZn ([2]; overview table, calculated pM): 8.50
- Calculated pM, Zn^2+ [2, 3]: 8.50
